Broadly, the IC50 is the concentration that gives 50% inhibition.

Data on one compound can be found in patent US20110218189A1, “PYRROLO[2,3-d]PYRIMIDIN-2-YL-AMINE DERIVATIVES AS PKC-THETA INHIBITORS” (N.V. ORGANON, priority 2008, published 2011).

This test has as its target T1, His-tagged human recombinant active PKC theta (Homo sapiens, UniProt Q04759).
T1 construct: His; made in house
The experiment in a line: IMAP fluorescence polarization assay, inhibition of PKC theta kinase activity. In kind it is biochemical. Conditions: ATP 10 μM, peptide substrate 50 nM, 60 minutes at 30° C.; read-out: IC50 IMAP PKCθ. The procedure: Inhibition of PKC theta kinase activity was measured using an Immobilized Metal for Phosphochemicals—based coupled assay (IMAP). IMAP is a homogeneous fluorescence polarization (FP) assay based on affinity capture of phosphorylated peptide substrates. IMAP uses fluorescein-labeled peptide substrates that, upon phosphorylation by a protein kinase, bind to so called IMAP nanoparticles, which are derivatized with trivalent metal complexes. Such binding causes a change in the rate of the molecular motion of the peptide, and results in an increase in the FP value observed for the fluorescein label attached to the substrate peptide. In this assay, PKC theta directly phosphorylates the fluorescein-labeled peptide substrate.
Enzymes, substrate and ATP are diluted at all steps in Kinase Reaction buffer (10 mM Tris-HCl, 10 mM MgCl2, 0.01% Tween-20, 0.05% NaN3 pH 7.2, 1 mM DTT). The final volume at the kinase reaction step of the assay in the 384-well plate is 20 μl. The concentrations presented within brackets are final concentrations. First, compounds or DMSO (1%) are added to the wells. Thereafter, peptide substrate (Pseudosubstrate LHQRRGSIKQAKVHHVK-FL, Neosystem, 50 nM) and ATP (10 μM) are added followed by the addition of the PKC theta enzyme (His-tagged human recombinant active PKC theta, 82 kDa, in-house purified, 10 ng/ml), and the mix is incubated for 60 minutes at 30° C. in the dark. Then IMAP progressive binding buffer (100% 1× buffer A, 1:400 Progressive Binding Reagent; Molecular Devices) is added followed by an incubation step of 60 minutes at room temperature in the dark. Finally, the FP signal is read.

T1 sequence (Q04759 whole entry): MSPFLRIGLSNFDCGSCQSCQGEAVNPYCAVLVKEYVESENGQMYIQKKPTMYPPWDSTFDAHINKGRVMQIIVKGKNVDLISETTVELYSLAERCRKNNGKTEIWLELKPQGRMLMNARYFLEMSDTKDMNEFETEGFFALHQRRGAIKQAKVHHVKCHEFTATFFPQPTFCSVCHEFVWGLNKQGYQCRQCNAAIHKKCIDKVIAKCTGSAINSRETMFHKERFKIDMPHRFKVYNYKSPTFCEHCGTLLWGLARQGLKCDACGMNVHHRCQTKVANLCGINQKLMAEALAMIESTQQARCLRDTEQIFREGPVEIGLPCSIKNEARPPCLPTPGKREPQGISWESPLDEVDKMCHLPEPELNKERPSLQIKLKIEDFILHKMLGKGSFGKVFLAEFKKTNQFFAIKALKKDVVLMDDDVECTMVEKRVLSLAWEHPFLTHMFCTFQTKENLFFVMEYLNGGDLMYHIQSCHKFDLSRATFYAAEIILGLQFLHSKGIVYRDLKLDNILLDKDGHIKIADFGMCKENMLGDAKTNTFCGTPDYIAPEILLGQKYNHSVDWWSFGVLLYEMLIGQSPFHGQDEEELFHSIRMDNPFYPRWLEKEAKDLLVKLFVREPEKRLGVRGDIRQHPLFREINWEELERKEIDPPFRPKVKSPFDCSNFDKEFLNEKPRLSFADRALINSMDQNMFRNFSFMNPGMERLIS

As to `Fc1ccc(CNc2ncc3cc(-c4c(Cl)cccc4Cl)n(C4CCCNCC4)c3n2)cc1F` (stereo not shown) [Example 8.2, 7-(Azepan-4-yl)-6-(2,6-dichlorophenyl)-N-(3,4-difluorobenzyl)-7H-pyrrolo[2,3-d]pyrimidin-2-amine], the IC50 is below 10 nM.
